These results are taken from ChEMBL document CHEMBL1133399, “2-(Alkylthio)pyrimidin-4-ones as novel, reversible inhibitors of lipoprotein-associated phospholipase A2” (Bioorg Med Chem Lett, 2000).

The first assay addresses T1, Platelet-activating factor acetylhydrolase (Homo sapiens) (UniProt Q13093).
T1 sequence (whole entry): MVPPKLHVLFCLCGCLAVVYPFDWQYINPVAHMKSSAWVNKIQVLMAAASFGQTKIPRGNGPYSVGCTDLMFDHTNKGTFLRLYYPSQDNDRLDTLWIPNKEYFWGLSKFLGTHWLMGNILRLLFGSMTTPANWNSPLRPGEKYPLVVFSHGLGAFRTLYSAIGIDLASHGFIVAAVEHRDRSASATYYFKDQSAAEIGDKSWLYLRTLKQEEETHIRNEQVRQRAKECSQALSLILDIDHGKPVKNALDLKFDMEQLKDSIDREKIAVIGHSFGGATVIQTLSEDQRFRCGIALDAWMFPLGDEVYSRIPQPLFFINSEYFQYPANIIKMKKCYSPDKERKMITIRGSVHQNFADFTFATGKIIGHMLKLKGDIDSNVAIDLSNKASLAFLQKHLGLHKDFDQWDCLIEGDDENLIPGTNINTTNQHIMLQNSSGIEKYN
Briefly: The compound was tested for inhibition of Lipoprotein-associated phospholipase A2 (Lp-PLA2) at 10 uM.
What is called inhibition is how much of the control response was suppressed. A lower inhibition goes with little suppression. The compound `O=C(NCCCCCCSc1ncc(Cc2cccnc2)c(O)n1)c1ccc(Cl)cc1` showed an inhibition of 41%.

Compound `Oc1nc(SCCCCCCCCc2ccccc2)ncc1Cc1ccoc1` gave an inhibition of 63%. The compound `Oc1nc(SCCCCCCCCc2ccccc2)ncc1Cc1ccccn1` gave an inhibition of 38%. The same measure, in the same setting: next, `Cc1nc(SCCCCCCCC(=O)c2ccc(Cl)cc2)nc(O)c1Cc1cccnc1`: 40%. Still for that read-out and setting: next, `O=C(CSc1ncc(Cc2cccnc2)c(O)n1)c1ccccc1`: 0%. Same read-out and setting: to `Oc1nc(SCCCCCCCCc2ccccc2)ncc1Cc1ccccc1` belongs 0%.

The next assay deals with T2, Platelet-activating factor acetylhydrolase (Homo sapiens, UniProt Q13093).
T2 sequence (Q13093 whole entry): T1 sequence (whole entry)
Briefly: The compound was tested for inhibition of Lipoprotein-associated phospholipase A2 (Lp-PLA2).
Usually Ki stands for a measure of affinity in units of concentration, obtained from inhibition or displacement. Low readings indicate higher affinity, high ones lower affinity. In turn, `Cn1ccc(Cc2cnc(SCCCCCCCC(=O)c3ccc(Cl)cc3)[nH]c2=O)cc1=O` returned a Ki of 41 nM.

For another assay, the target named is T1, Platelet-activating factor acetylhydrolase (Homo sapiens). Put plainly: The compound was tested for inhibition of Lipoprotein-associated phospholipase A2 (Lp-PLA2) at 30 uM.
Take `Cc1ccc(Cc2cnc(SCCCc3ccccc3)nc2O)cn1`: the inhibition worked out at 10%.

In a further assay the target is T2, Platelet-activating factor acetylhydrolase. Put plainly: Inhibition of lipoprotein-associated phospholipase A2 (Lp-PLA2).
What is called IC50 is the concentration that inhibits the measured activity by half. A low value points to higher potency. `COc1ccc(CCCCCCCCSc2ncc(Cc3ccc(C)nc3)c(O)n2)cc1` returned an IC50 of 1100 nM.

Consider `Oc1nc(SCc2ccc(F)cc2)ncc1Cc1cncnc1`, for which the half-maximal inhibitory concentration (IC50) amounted to 850 nM.

Turning to `O=C(CCCCCCCSc1ncc(Cc2cccnc2)c(O)n1)c1cccs1`, the IC50 was found to be 1300 nM. Still for that read-out and setting: to `CC(=O)c1ccc(CCCCCCCCSc2ncc(Cc3cccnc3)c(O)n2)cc1` belongs 2900 nM; to `Cn1ccc(Cc2cnc(SCCCCCCCC(=O)c3ccc(Cl)cc3)[nH]c2=O)cc1=O`, 72 nM; to `O=c1[nH]c(SCc2ccccc2)ncc1Cc1ccncc1`, 4400 nM. The same measure, in the same setting: next, `O=c1[nH]c(SCCCCCCc2ccccc2)ncc1Cc1cccnc1`: 2300 nM.

On to `Oc1nc(SCCCCCCCSc2ccc(Cl)cc2)ncc1Cc1cccnc1`, for which it took 250 nM to reach half-maximal inhibition (IC50).

`Cc1ccc(Cc2cnc(SCCCCCCCCCc3ccccc3)nc2O)cn1` showed an IC50 of 990 nM. This IC50 lies about 4-fold higher than the previous one.

`O=C(CCCCCCCSc1ncc(Cc2cnccn2)c(=O)[nH]1)c1ccc(Cl)cc1` had a half-maximal inhibitory concentration (IC50) of 640 nM. Turning to `Oc1nc(SCCCCCCCCCc2ccccc2)ncc1Cc1cccnc1`, the IC50 is 430 nM. In turn, `Oc1nc(SCCCCCCCCc2ccc(Cl)cc2)ncc1Cc1cccnc1` registered an IC50 of 200 nM. The same measure, in the same setting: to `O=C(CCCCCCCSc1ncc(Cc2cccnc2)c(O)n1)c1ccc(Cl)cc1` belongs 110 nM. `Oc1nc(SCCCCCCCOc2ccc(Cl)cc2)ncc1Cc1cccnc1` returned a half-inhibitory concentration (IC50) of 230 nM.

For the compound `[O-][S+](CCCCCCCSc1ncc(Cc2cccnc2)c(O)n1)c1ccc(Cl)cc1` (configuration not stated), the IC50 came out at 17000 nM. Against the preceding compound, the IC50 is about 74-fold higher. Same read-out and setting: next, `O=c1[nH]c(SCCCCCCCCc2ccccc2)ncc1Cc1ccncc1`: 630 nM. Still for that read-out and setting: next, `CCCCn1ccc(Cc2cnc(SCCCCCCCCc3ccccc3)nc2O)cc1=O`: 780 nM.

Consider `Oc1nc(SCc2ccccc2)ncc1Cc1cncnc1`, for which the IC50 is 1100 nM. On the same count and under the same terms, next, `O=C(CCCCCCCSc1ncc(Cc2cncnc2)c(O)n1)c1ccc(Cl)cc1`: 54 nM. On the same count and under the same terms, to `Cc1ccc(Cc2cnc(OCCCCc3ccccc3)nc2O)cn1` belongs 12000 nM; to `O=C(CCCCCCCOc1ncc(Cc2cccnc2)c(=O)[nH]1)c1ccc(Cl)cc1`, 64 nM.

As for `O=C(CCCCCCCCSc1ncc(Cc2cccnc2)c(=O)[nH]1)c1ccc(Cl)cc1`, half-maximal inhibition (IC50) required 650 nM. Same read-out and setting: to `Cc1ccc(Cc2cnc(SCCCCCCOCc3ccc(Cl)cc3)[nH]c2=O)cn1` belongs 1200 nM; to `Cc1ccc(Cc2cnc(SCCCCCCCc3ccccc3)nc2O)cn1`, 1000 nM; to `COc1cc(Cc2cnc(SCCCCCCCCc3ccccc3)nc2O)ccn1`, 1000 nM. On the same count and under the same terms, to `O=S(=O)(CCCCCCCSc1ncc(Cc2cccnc2)c(O)n1)c1ccc(Cl)cc1` belongs 12600 nM; to `O=c1[nH]c(SCc2ccc(Cl)cc2)ncc1Cc1cccnc1`, 4400 nM.

The compound `O=c1[nH]c(SCCCCCCCCc2cccc(Cl)c2)ncc1Cc1cccnc1` registered an IC50 of 850 nM. Take `O=c1[nH]c(SCc2ccccc2)ncc1Cc1cccnc1`: the IC50 worked out at 1100 nM.
